Assays:
[1] = target: T1, Rat Hepatic V1 Receptors (Rattus norvegicus, UniProt P30560); assay: Binding Assay to Rat Hepatic V1 Receptors; conditions: rat liver membranes; read-out: V1 IC50
T1 construct: Rat liver plasma membranes expressing the vasopressin V1 receptor subtypes; from tissue; host or cells: rat liver plasma membranes

[2] = target: T2, Rat Kidney Medullary V2 Receptors (Rattus norvegicus, UniProt Q00788); assay: Binding Assay to Rat Kidney Medullary V2 Receptors; conditions: for IC50: rat kidney medulla membranes, read-out: V2 IC50
T2 construct: Medullary tissues from rat kidneys are dissected out; from tissue; host or cells: rat kidney medulla membranes
T2 sequence (Q00788 whole entry): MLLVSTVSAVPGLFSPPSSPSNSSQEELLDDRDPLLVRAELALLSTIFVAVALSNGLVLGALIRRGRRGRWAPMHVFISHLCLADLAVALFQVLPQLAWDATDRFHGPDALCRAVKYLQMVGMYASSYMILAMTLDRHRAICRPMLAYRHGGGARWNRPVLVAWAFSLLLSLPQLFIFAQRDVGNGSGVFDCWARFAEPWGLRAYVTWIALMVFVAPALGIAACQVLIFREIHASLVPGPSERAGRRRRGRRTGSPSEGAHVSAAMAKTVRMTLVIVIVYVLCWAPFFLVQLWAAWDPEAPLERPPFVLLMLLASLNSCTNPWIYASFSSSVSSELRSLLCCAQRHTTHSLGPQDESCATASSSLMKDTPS
Procedure, shortened: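 IC50 derived from competition curves; bound tritium counted by liquid scintillation after filtration. Rat medullary kidney membranes (Tris-HCl pH 7.4, BSA, PMSF) were incubated 120 min to equilibrium with radioligand and test compound (added in 50% DMSO). Nonspecific binding: 1.0 μM unlabeled ligand.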

[3] = tested on: Vasopressin V2; assay: Vasopressin V2 Antagonist Activity in Conscious Hydrated Rats; assay type: in vivo, rat; conditions: 10 mg/kg orally, AVP 0.4 μg/kg i.p.
Procedure, shortened: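 Four-hour urine output, osmolality and electrolytes (Na+, K+, Cl−) recorded in water-loaded rats (30 mL/kg deionized water orally) given AVP i.p. at 0.4 μg/kg. Test compounds were given orally at 0.1–100 mg/kg 1 h before AVP; 2–4 rats per compound.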

[4] = tested on: Vasopressin V1; assay: Vasopressin V1 Antagonist Activity in Conscious Rats (vasopressin vasopressor response); assay type: in vivo, rat
Procedure, shortened: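 Conscious rats are restrained supine, and under local 2% procaine a PE 10/20 cannula is passed through the ventral caudal tail artery into the lower abdominal aorta. The caudal vein is cannulated for intravenous dosing. Blood pressure is recorded with a Statham P23Db transducer, and vasopressin injections are repeated after compound dosing. Percent antagonism is calculated against the pre-drug vasopressor response taken as 100%.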

T1 sequence (P30560 whole entry): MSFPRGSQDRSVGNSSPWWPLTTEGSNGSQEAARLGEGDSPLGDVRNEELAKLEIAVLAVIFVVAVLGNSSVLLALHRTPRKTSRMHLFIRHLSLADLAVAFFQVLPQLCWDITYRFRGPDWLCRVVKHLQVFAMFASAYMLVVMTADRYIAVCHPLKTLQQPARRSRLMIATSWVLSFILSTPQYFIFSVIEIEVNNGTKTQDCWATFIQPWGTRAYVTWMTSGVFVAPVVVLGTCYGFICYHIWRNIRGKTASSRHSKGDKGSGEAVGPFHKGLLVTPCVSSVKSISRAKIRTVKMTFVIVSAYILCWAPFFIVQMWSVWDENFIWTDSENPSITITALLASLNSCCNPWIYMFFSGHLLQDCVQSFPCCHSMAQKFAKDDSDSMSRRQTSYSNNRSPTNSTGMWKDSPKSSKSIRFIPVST

| Structure (SMILES) | IC50 [1] | IC50 [2] | Osmolality [3] | Urine Volume [3] | Max. % Inhibition ([4]; 30 mg/kg i.v.) | Time (of max. % inhibition) ([4]; 30 mg/kg i.v.) | Max. % Inhibition ([4]; 10 mg/kg i.v.) | Time (of max. % inhibition) ([4]; 10 mg/kg i.v.) | Max. % Inhibition ([4]; 30 mg/kg p.o.) | Time (of max. % inhibition) ([4]; 30 mg/kg p.o.) | inhibition at 10 µM ([2]; 10 μM, rat) |
| --- | --- | --- | --- | --- | --- | --- | --- | --- | --- | --- | --- |
| O=C(Nc1ccc(C(=O)N2Cc3ccnn3Cc3ccccc32)cc1)c1ccc(Cl)cc1Cl [Example 217, N-[4-(4H-Pyrazolo[5,1-c][1,4]benzo-diazepin-5(10H)-ylcarbonyl)phenyl]-2,4-dichlorobenzamide] | 68 nM | 5 nM | 466 mOsm/kg | 14.3 ml/4 hrs | 57% | 90 min | – | – | – | – | – |
| O=C(Nc1ccc(C(=O)N2Cc3cccn3Cc3ccccc32)cc1)c1c(Cl)cccc1Cl [Example 469, N-[4-(5H-pyrrolo[2,1-c][1,4]benzodiazepin-10(11H)-ylcarbonyl)phenyl]-2,6-dichlorobenzamide] | 94 nM | 15 nM | 548 mOsm/kg | 11.3 ml/4 hrs | – | – | 69% | 30 min | – | – | – |
| Cc1ccccc1C(=O)Nc1ccc(C(=O)N2Cc3cccn3Cc3ccccc32)c(Cl)c1 [Example 470] | 54 nM | 4.5 nM | 387 mOsm/kg | 17 ml/4 hrs | – | – | 87% | 180 min | 69% | 180 min | – |
| O=C(Nc1ccc(C(=O)N2Cc3cccn3Cc3ccccc32)c(Cl)c1)c1ccc(Cl)cc1Cl [Example 471] | 45 nM | 8.3 nM | 507 ± 38 mOsm/kg | 14.1 ± 1.9 ml/4 hrs | 85% | 90 min | – | – | – | – | – |
| Cc1ccccc1C(=O)Nc1c(C)cc(C(=O)N2Cc3cccn3Cc3ccccc32)cc1C [Example 472] | 890 nM | – | 1453 mOsm/kg | 4.3 ml/4 hrs | 36% | 90 min | – | – | – | – | 22% |
| O=C(Nc1ccc(C(=O)N2Cc3cccn3Cc3ccccc32)cc1)c1cccc(C(F)(F)F)c1 [Example 474, N-[4-(5H-pyrrolo[2,1-c][1,4]benzodiazepin-10(11H)-ylcarbonyl)phenyl]-3-(trifluoromethyl)benzamide] | 87 nM | 38 nM | 619 mOsm/kg | 11.5 ml/4 hrs | 80% | 60 min | – | – | – | – | – |
